Experimental data reported in paper PMC3891892 (Nature, 2013).
Values after ≈ are worked out from the molar mass of the structure shown.

Assays:
[1] = test system: recombinant virus possessing Hangzhou/1 HA; format: binding, influenza A virus (H7N9)
[2] = test system: CA04 (A/California/04/2009; H1N1); experiment: microbe, parasite or virus in culture; format: cell-based; conditions: Influenza A virus, H1N1, MDCK, read-out: IC50, plaque reduction assay
[3] = test system: CA04; parameters: species or system mice; conditions: mouse, in vivo, po

In the case of CC(=O)N[C@H]1[C@H]([C@H](O)[C@H](O)CO)OC(C(=O)O)=C[C@@H]1N=C(N)N [Zanamivir, zanamivir], the “effect of inhibition of NA enzymatic function on glycan binding” value [1] is reported as “substantial increases in binding to α2–3 linked sialosides”.

NC(=O)c1nc(F)c[nH]c1=O [favipiravir] was tested, and the IC50 [2] was 1.2 µg/mL (≈ 7.64 µM) and the therapeutic effectiveness [3] was “clear therapeutic effectiveness”.
